Numbered stars: 1 amine (or outer) side, 2 acyl side, 3 side chain; on linkers, the order of the positions; unused ones are H or OH. Peptide text beside a SMILES is read from it. * marks the point of attachment. C20 diacid = O=C(O)CCCCCCCCCCCCCCCCCCC(=O)*; C18 diacid = O=C(O)CCCCCCCCCCCCCCCCC(=O)*; γGlu = O=C(O)[C@H](CCC(=O)[*:2])N[*:1]
How the values were obtained:
[1] = Solubility in 100 mM glycylglycine buffer at pH 4.0 incubated for 18 hrs by UPLC analysis; type: physicochemical
[2] = Solubility in 100 mM bistrispropane buffer at pH 6.5 incubated for 18 hrs by UPLC analysis; type: physicochemical
[3] = molecular target: T1, Amylin receptor AMY3; CALCR/RAMP3 (Homo sapiens, UniProt O60896+P30988); experiment: Agonist activity at human amylin receptor expressed in BHK570 cells co-expressing RAMP3 assessed as increase in intracellular cAMP concentration incubated for 3 hrs in absence of albumin by CRE luciferase reporter gene assay; type: functional, cell-based
T1 sequence (P30988 whole entry): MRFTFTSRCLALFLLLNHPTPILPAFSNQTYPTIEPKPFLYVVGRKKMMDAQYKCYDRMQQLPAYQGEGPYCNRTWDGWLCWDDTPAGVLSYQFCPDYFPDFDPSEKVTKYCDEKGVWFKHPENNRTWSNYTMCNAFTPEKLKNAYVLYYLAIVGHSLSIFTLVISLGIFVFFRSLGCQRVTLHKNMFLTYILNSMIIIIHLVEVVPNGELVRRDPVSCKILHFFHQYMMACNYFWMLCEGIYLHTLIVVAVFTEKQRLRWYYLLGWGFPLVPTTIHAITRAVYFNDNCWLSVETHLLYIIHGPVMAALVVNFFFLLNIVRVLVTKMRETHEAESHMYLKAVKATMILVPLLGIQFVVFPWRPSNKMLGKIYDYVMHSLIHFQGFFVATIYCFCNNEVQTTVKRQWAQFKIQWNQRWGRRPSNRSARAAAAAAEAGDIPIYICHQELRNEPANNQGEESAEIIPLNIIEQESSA
T1 sequence (O60896 whole entry): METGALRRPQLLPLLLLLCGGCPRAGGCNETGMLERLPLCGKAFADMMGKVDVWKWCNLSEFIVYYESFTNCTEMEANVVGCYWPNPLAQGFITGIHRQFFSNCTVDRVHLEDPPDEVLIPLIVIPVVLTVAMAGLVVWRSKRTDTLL

Calcitonin receptor [4] = molecular target: T2, Calcitonin receptor (Homo sapiens, UniProt P30988); experiment: Agonist activity at human calcitonin receptor expressed in BHK570 cells assessed as increase in intracellular cAMP concentration incubated for 3 hrs in absence of albumin by CRE luciferase reporter gene assay; type: functional, cell-based
T2 sequence (P30988 whole entry): T1 sequence (P30988 whole entry)

[5] = Solubility in 100 mM bistrispropane buffer at pH 7.5 incubated for 18 hrs by UPLC analysis; type: physicochemical
[6] = Solubility in 100 mM glycylglycine buffer at pH 3.0 incubated for 18 hrs by UPLC analysis; type: physicochemical
[7] = Solubility in 100 mM bistrispropane buffer at pH 8.0 incubated for 18 hrs by UPLC analysis; type: physicochemical
[8] = Solubility in 100 mM bistrispropane buffer at pH 7.0 incubated for 18 hrs by UPLC analysis; type: physicochemical
[9] = Solubility in 100 mM bistrispropane buffer at pH 6.0 incubated for 18 hrs by UPLC analysis; type: physicochemical
[10] = Solubility in 100 mM glycylglycine buffer at pH 5.0 incubated for 18 hrs by UPLC analysis; type: physicochemical
Calcitonin receptor [11] = molecular target: T2, Calcitonin receptor; experiment: Agonist activity at human calcitonin receptor expressed in BHK570 cells assessed as increase in intracellular cAMP concentration incubated for 3 hrs in presence of 10% FBS by CRE luciferase reporter gene assay; type: functional, cell-based

| solubility at 18 h [1] [µM] | solubility at 18 h [2] [µM] | EC50 [3] [nM] | EC50 (Calcitonin receptor [4]) [nM] | solubility at 18 h [5] [µM] | solubility at 18 h [6] [µM] | solubility at 18 h [7] [µM] | solubility at 18 h [8] [µM] | solubility at 18 h [9] [µM] | solubility at 18 h [10] [µM] | EC50 (Calcitonin receptor [11]) [nM] | SMILES |
| --- | --- | --- | --- | --- | --- | --- | --- | --- | --- | --- | --- |
| ≥ 200 | ≥ 200 | 0.012 | 0.006 | ≥ 200 | ≥ 200 | ≥ 200 | ≥ 200 | ≥ 200 | ≥ 200 | – | CC(C)C[C@H](NC(=O)[C@H](CCC(=O)O)NC(=O)[C@H](Cc1cnc[nH]1)NC(=O)[C@H](CC(C)C)NC(=O)[C@H](CCC(=O)O)NC(=O)[C@H](C)NC(=O)[C@H](CO)NC(=O)[C@H](CC(C)C)NC(=O)[C@H](CCCNC(=N)N)NC(=O)CNC(=O)[C@H](CC(C)C)NC(=O)[C@@H](NC(=O)[C@H](C)NC(=O)[C@@H](NC(=O)[C@H](CO)NC(=O)[C@H](CC(C)C)NC(=O)[C@@H]1CCCN1C(=O)[C@@H]1CCCN1C(=O)[C@H](C)NC(=O)[C@H](CCC(=O)O)NC(=O)CCCCCCCCCCCCCCCCC(=O)O)[C@@H](C)O)C(C)C)C(=O)N[C@@H](C)C(=O)N[C@H](C(=O)N[C@@H](CC(C)C)C(=O)N1CCC[C@H]1C(=O)N[C@@H](CCCNC(=N)N)C(=O)N[C@H](C(=O)N[C@@H](CCC(=O)O)C(=O)N[C@H](C(=O)NCC(=O)N1CCC[C@H]1C(=O)N[C@@H](CCC(=O)O)C(=O)N[C@@H](CO)C(=O)N1CCC[C@H]1C(N)=O)[C@@H](C)O)[C@@H](C)O)[C@@H](C)O ({C18 diacid}-EAPPLSTAVLGRLSAELHELATLPRTETGPESP-NH2) |
| ≥ 200 | ≥ 200 | 0.028 | 0.013 | ≥ 200 | ≥ 200 | ≥ 200 | ≥ 200 | ≥ 200 | ≥ 200 | – | CC(C)C[C@H](NC(=O)[C@H](C)NC(=O)[C@@H](NC(=O)[C@H](CO)NC(=O)[C@H](CC(C)C)NC(=O)[C@H](CCC(=O)O)NC(=O)[C@H](CO)NC(=O)[C@H](C)NC(=O)[C@H](CCC(=O)O)NC(=O)CCCCCCCCCCCCCCCCC(=O)O)[C@@H](C)O)C(=O)N[C@@H](CC(C)C)C(=O)NCC(=O)N[C@@H](CCCNC(=N)N)C(=O)N[C@@H](CC(C)C)C(=O)N[C@@H](CO)C(=O)N[C@@H](C)C(=O)N[C@@H](CCC(=O)O)C(=O)N[C@@H](CC(C)C)C(=O)N[C@@H](Cc1cnc[nH]1)C(=O)N[C@@H](CCC(=O)O)C(=O)N[C@@H](CC(C)C)C(=O)N[C@@H](C)C(=O)N[C@H](C(=O)N[C@@H](CC(C)C)C(=O)N1CCC[C@H]1C(=O)N[C@@H](CCCNC(=N)N)C(=O)N[C@H](C(=O)N[C@@H](CCC(=O)O)C(=O)N[C@H](C(=O)NCC(=O)N1CCC[C@H]1C(=O)N[C@@H](CCC(=O)O)C(=O)N[C@@H](CO)C(=O)N1CCC[C@H]1C(N)=O)[C@@H](C)O)[C@@H](C)O)[C@@H](C)O ({C18 diacid}-EASELSTALLGRLSAELHELATLPRTETGPESP-NH2) |
| ≥ 200 | ≥ 200 | 0.016 | 0.008 | ≥ 200 | ≥ 200 | ≥ 200 | ≥ 200 | ≥ 200 | ≥ 200 | – | CC(C)C[C@H](NC(=O)[C@H](CCC(=O)O)NC(=O)[C@H](Cc1cnc[nH]1)NC(=O)[C@H](CC(C)C)NC(=O)[C@H](CCC(=O)O)NC(=O)[C@H](C)NC(=O)[C@H](CO)NC(=O)[C@H](CC(C)C)NC(=O)[C@H](CCCCN)NC(=O)CNC(=O)[C@H](CC(C)C)NC(=O)[C@@H](NC(=O)[C@H](C)NC(=O)[C@@H](NC(=O)[C@H](CO)NC(=O)[C@H](CC(C)C)NC(=O)[C@H](CCC(=O)O)NC(=O)[C@H](CO)NC(=O)[C@H](C)NC(=O)[C@H](CCC(=O)O)NC(=O)CCCCCCCCCCCCCCCCC(=O)O)[C@@H](C)O)C(C)C)C(=O)N[C@@H](C)C(=O)N[C@H](C(=O)N[C@@H](CC(C)C)C(=O)N1CCC[C@H]1C(=O)N[C@@H](CCCCN)C(=O)N[C@H](C(=O)N[C@@H](CCC(=O)O)C(=O)N[C@H](C(=O)NCC(=O)N1CCC[C@H]1C(=O)N[C@@H](CCC(=O)O)C(=O)N[C@@H](CO)C(=O)N1CCC[C@H]1C(N)=O)[C@@H](C)O)[C@@H](C)O)[C@@H](C)O ({C18 diacid}-EASELSTAVLGKLSAELHELATLPKTETGPESP-NH2) |
| ≥ 200 | ≥ 200 | 0.033 | 0.027 | ≥ 200 | ≥ 200 | ≥ 200 | ≥ 200 | ≥ 200 | – | 0.03 | CC(C)C[C@H](NC(=O)[C@H](C)NC(=O)[C@H](C)NC(=O)[C@@H](NC(=O)[C@H](CO)NC(=O)[C@H](CC(C)C)NC(=O)[C@H](CCC(=O)O)NC(=O)[C@H](CO)NC(=O)[C@H](C)NC(=O)CC[C@H](NC(=O)CCCCCCCCCCCCCCCCCCC(=O)O)C(=O)O)[C@@H](C)O)C(=O)NCC(=O)N[C@@H](CCCNC(=N)N)C(=O)N[C@@H](CC(C)C)C(=O)N[C@@H](CO)C(=O)N[C@@H](C)C(=O)N[C@@H](CCC(=O)O)C(=O)N[C@@H](CC(C)C)C(=O)N[C@@H](Cc1cnc[nH]1)C(=O)N[C@@H](CCC(=O)O)C(=O)N[C@@H](CC(C)C)C(=O)N[C@@H](CO)C(=O)N[C@H](C(=O)N[C@@H](Cc1ccc(O)cc1)C(=O)N1CCC[C@H]1C(=O)N[C@@H](CCCNC(=N)N)C(=O)N[C@H](C(=O)N[C@@H](CCC(=O)O)C(=O)N[C@H](C(=O)NCC(=O)N[C@@H](CO)C(=O)NCC(=O)N[C@@H](CO)C(=O)N1CCC[C@H]1C(N)=O)[C@@H](C)O)[C@@H](C)O)[C@@H](C)O ({C20 diacid-γGlu}-ASELSTAALGRLSAELHELSTYPRTETGSGSP-NH2) |
| – | ≥ 200 | 0.037 | – | ≥ 200 | ≥ 200 | ≥ 200 | ≥ 200 | ≥ 200 | – | 0.042 | CC(C)C[C@H](NC(=O)[C@H](CO)NC(=O)[C@H](C)NC(=O)[C@@H](NC(=O)[C@H](CO)NC(=O)[C@H](CC(C)C)NC(=O)[C@H](CCC(=O)O)NC(=O)[C@H](CO)NC(=O)[C@H](C)NC(=O)CC[C@H](NC(=O)CCCCCCCCCCCCCCCCCCC(=O)O)C(=O)O)[C@@H](C)O)C(=O)NCC(=O)N[C@@H](CCCNC(=N)N)C(=O)N[C@@H](CC(C)C)C(=O)N[C@@H](CO)C(=O)N[C@@H](C)C(=O)N[C@@H](CCC(=O)O)C(=O)N[C@@H](CC(C)C)C(=O)N[C@@H](Cc1cnc[nH]1)C(=O)N[C@@H](CCC(=O)O)C(=O)N[C@@H](CC(C)C)C(=O)N[C@@H](C)C(=O)N[C@H](C(=O)N[C@@H](Cc1ccc(O)cc1)C(=O)N1CCC[C@H]1C(=O)N[C@@H](CCCNC(=N)N)C(=O)N[C@H](C(=O)N[C@@H](CCC(=O)O)C(=O)N[C@H](C(=O)NCC(=O)N[C@@H](CO)C(=O)NCC(=O)N[C@@H](CO)C(=O)N[C@@H](Cc1ccc(O)cc1)C(N)=O)[C@@H](C)O)[C@@H](C)O)[C@@H](C)O ({C20 diacid-γGlu}-ASELSTASLGRLSAELHELATYPRTETGSGSY-NH2) |

| SMILES | solubility at 18 h [1] [µM] | solubility at 18 h [2] [µM] | EC50 [3] [nM] | EC50 (Calcitonin receptor [4]) [nM] | solubility at 18 h [5] [µM] | solubility at 18 h [6] [µM] | solubility at 18 h [7] [µM] | solubility at 18 h [8] [µM] | solubility at 18 h [9] [µM] | solubility at 18 h [10] [µM] | EC50 (Calcitonin receptor [11]) [nM] |
| --- | --- | --- | --- | --- | --- | --- | --- | --- | --- | --- | --- |
| CC(C)C[C@H](NC(=O)[C@H](C)NC(=O)[C@@H](NC(=O)[C@H](CO)NC(=O)[C@H](CC(C)C)NC(=O)[C@H](CCC(=O)O)NC(=O)[C@H](CO)NC(=O)[C@H](C)NC(=O)[C@H](CCC(=O)O)NC(=O)CCCCCCCCCCCCCCCCC(=O)O)[C@@H](C)O)C(=O)N[C@@H](C)C(=O)NCC(=O)N[C@@H](CCCNC(=N)N)C(=O)N[C@@H](CC(C)C)C(=O)N[C@@H](CO)C(=O)N[C@@H](C)C(=O)N[C@@H](CCC(=O)O)C(=O)N[C@@H](CC(C)C)C(=O)N[C@@H](Cc1cnc[nH]1)C(=O)N[C@@H](CCC(=O)O)C(=O)N[C@@H](CC(C)C)C(=O)N[C@@H](C)C(=O)N[C@H](C(=O)N[C@@H](CC(C)C)C(=O)N1CCC[C@H]1C(=O)N[C@@H](CCCNC(=N)N)C(=O)N[C@H](C(=O)N[C@@H](CCC(=O)O)C(=O)N[C@H](C(=O)NCC(=O)N1CCC[C@H]1C(=O)N[C@@H](CCC(=O)O)C(=O)N[C@@H](CO)C(=O)N1CCC[C@H]1C(N)=O)[C@@H](C)O)[C@@H](C)O)[C@@H](C)O ({C18 diacid}-EASELSTALAGRLSAELHELATLPRTETGPESP-NH2) | ≥ 200 | ≥ 200 | 0.008 | 0.004 | ≥ 200 | ≥ 200 | ≥ 200 | ≥ 200 | ≥ 200 | ≥ 200 | – |

Reference: ChEMBL document CHEMBL4420076, “Amylin and calcitonin receptor agonist” (2017)
